{"source": "paper PMC7948455", "about": "“Novel drug discovery platform for spinocerebellar ataxia, using fluorescence technology targeting β-III-spectrin” (The Journal of Biological Chemistry, 2020)", "key": {"[1]": {"molecular_target": "T1, ABD-L253P binding to actin (Homo sapiens, UniProt O15020, L253P)", "T1 construct": "the β-III-spectrin (human) ABD residues 1 to 284; His-SUMO (cleaved yes); made in house; host or cells: E. coli BL21(DE3), vector pE-SUMOpro; actin from rabbit psoas muscle tissue", "T1 sequence (O15020 1-284 L253P)": "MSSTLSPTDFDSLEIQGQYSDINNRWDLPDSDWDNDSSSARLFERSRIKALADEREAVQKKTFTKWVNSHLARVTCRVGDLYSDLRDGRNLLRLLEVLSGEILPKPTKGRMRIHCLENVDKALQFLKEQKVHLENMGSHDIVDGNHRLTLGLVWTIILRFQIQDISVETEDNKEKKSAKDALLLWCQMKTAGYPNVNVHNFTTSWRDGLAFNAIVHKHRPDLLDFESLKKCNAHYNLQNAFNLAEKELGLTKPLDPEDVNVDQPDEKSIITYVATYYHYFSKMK", "assay": "F-actin and ABD cosedimentation assay", "conditions": "for Effect on ABD-L253P to actin cosedimentation: 10 μM Hit compound", "method": "Actin was purified from acetone powder derived from the psoas muscle of New Zealand white rabbit (Oryctolagus cuniculus) ([46]). Filamentous (F)-actin was stored for up to 3 days on ice before use in binding assays. Within an hour of the binding assay, the F-actin was clarified at 100,000g at 4 °C for 10 min prior to setting up binding assays. The L253P β-III-spectrin ABD was expressed in E. coli BL21(DE3) (Novagen). The ABD was purified and the His-SUMO tag proteolytically removed, as previously described ([14]), except size-exclusion chromatography was not performed due to the high purity of the ABD protein. Lifeact-mCherry protein was similarly prepared. A Bradford assay was performed to determine clarified F-actin and ABD protein concentrations.\n(§1) F-actin and ABD binding assays were performed as previously described ([10]). In brief, binding assays used 1 μM ABD protein, 1 μM F-actin, and 1 to 50 μM compound (as indicated) or DMSO control for a total reaction volume of 60 μl in F-buffer containing 10 mM Tris, pH 7.5, 150 mM NaCl, 0.5 mM ATP, 2 mM MgCl2, and 1 mM DTT. Following 30 min incubation at room temperature (21 °C). F-actin was pelleted using centrifugation at 100,000g at 25 °C for 30 min. Unbound ABD in the supernatant was measured following SDS-PAGE and Coomassie blue staining in accord ([10]). In addition, control cosedimentations assays that lacked actin were performed to test if compounds cause ABD aggregation. F-actin and Lifeact-mCherry binding assays were undertaken with 2 μM Lifeact-mCherry, 30 μM F-actin, and 1 to 50 μM compound (as indicated) or DMSO control for a total reaction volume of 80 μl in F-buffer. For a no-actin binding control, an assay sample with no F-actin was also set up. Binding reactions were allowed to reach equilibrium at room temperature (21 °C) for 30 min, and then F-actin was pelleted by centrifugation at 100,000g at 25 °C for 30 min. The amount of unbound Lifeact-mCherry was sampled by loading 7 μl of spin supernatant on a low-volume black bottom 384-well plate (Greiner). Amount of mCherry was determined by acquiring fluorescence spectrum peak intensity at ∼600 nm using a spectral unmixing plate reader (Fluorescence Innovations, Inc) equipped with a 532 nm laser (Laserglow Technologies, Ontario, Canada) for excitation, 532 nm long-pass filter for emission, and PMT for emission detection. The fraction of Lifeact-mCherry bound to F-actin was determined by subtracting from one the fraction of supernatant fluorescence intensity relative to the no-actin control sample:(3) Lifeactboundfraction=1−Fcompound/DMSO/FNo−actin where Fcontrol/DMSO is the peak mCherry fluorescence of assay samples containing compound or DMSO control, and Fno-actin is the peak mCherry fluorescence of assay samples that contained no F-actin."}, "ABD L253P": {"molecular_target": "T2, ABD L253P (Homo sapiens, UniProt O15020, L253P)", "T2 construct": "the β-III-spectrin (human) ABD residues 1 to 284; His-SUMO (cleaved yes); made in house; host or cells: E. coli BL21(DE3), vector pE-SUMOpro", "T2 sequence (O15020 1-284 L253P)": "as above", "assay": "Sedimentation of ABD L253P without actin (aggregation)", "conditions": "for Effect on ABD pelleting without actin (aggregation): 10 μM Hit compound, n = 4", "method": "In addition to a reduction in cell viability, the primary and counter screen may be sensitive to compounds that promote ABD-L253P protein aggregation. […] Our assay measuring ABD-L253P cosedimentation with actin is not sensitive to ABD aggregation, as it is designed to work under conditions where ∼90% ABD-L253P cosediments with actin. Nevertheless, we repeated these measurements in the absence of actin.\nas §1"}}, "note": "Entries after “also recorded” stand apart in the source; their conditions may differ."}
{"smiles": "CO[C@H]1C[C@H](CC[C@H](C)[C@H](O)[C@H](C)[C@H]2OC(=O)/C=C/C(C)=C/C[C@H](O)C[C@@H]3C=CC[C@@H](C[C@H](OC)[C@@H](C)[C@@H](O)C[C@@H](O)[C@H](C)[C@@H]([C@@H](C)[C@@H](O)[C@@H](C)CC[C@H]4C[C@H](OC)C[C@H](C)O4)OC(=O)/C=C/C(C)=C/C[C@H](O)C[C@@H]4C=CC[C@@H](C[C@H](OC)[C@@H](C)[C@@H](O)C[C@@H](O)[C@@H]2C)O4)O3)O[C@@H](C)C1", "note": "[swinholide A]", "values": [{"measurement": "Effect on ABD-L253P cosedimentation with actin", "setting": "[1]; 3 μM swinholide A, 50 μM tegaserod, n = 4", "result": "ablation"}, {"measurement": "Effect on ABD sedimentation without actin", "setting": "ABD L253P; 1.6 μM swinholide A", "result": "did not induce"}]}
{"smiles": "CC(C)(C)c1ccc(/C=C/C(=O)Nc2ccc3c(c2)OCCO3)cc1", "note": "[AMG 9810]", "values": [{"measurement": "Effect on ABD-L253P to actin cosedimentation", "setting": "[1]", "result": "do not significantly alter"}, {"measurement": "Effect on ABD pelleting without actin (aggregation)", "setting": "ABD L253P", "result": "do not significantly alter"}]}
{"smiles": "CCCCCCCC/C=C\\CCCCCCCC(=O)NCc1ccc(O)c(OC)c1", "note": "[olvanil]", "values": [{"measurement": "Effect on ABD-L253P to actin cosedimentation", "setting": "[1]", "result": "do not significantly alter"}, {"measurement": "Effect on ABD pelleting without actin (aggregation)", "setting": "ABD L253P", "result": "do not significantly alter"}]}
{"smiles": "O=C(O)c1cc([N+](=O)[O-])ccc1NCCCc1ccccc1", "note": "[NPPB]", "values": [{"measurement": "Effect on ABD-L253P to actin cosedimentation", "setting": "[1]", "result": "do not significantly alter"}, {"measurement": "Effect on ABD pelleting without actin (aggregation)", "setting": "ABD L253P", "result": "do not significantly alter"}]}
{"smiles": "CCOc1nc2cccc(C(=O)O)c2n1Cc1ccc(-c2ccccc2-c2nnn[nH]2)cc1", "note": "[candesartan]", "values": [{"measurement": "Effect on ABD-L253P to actin cosedimentation", "setting": "[1]", "result": "do not significantly alter"}, {"measurement": "Effect on ABD pelleting without actin (aggregation)", "setting": "ABD L253P", "result": "trend toward increasing; also recorded: do not significantly alter"}]}
